Measured values taken from US7696129B2, “Substituted aromatic amide derivative, intermediate thereof, agrohorticultural insecticide containing thereof and method for the use thereof” (Nihon Nohyaku Co., Ltd., priority 2001, dated 2010).

Key:
Assay type in all cases: in vivo
[1] = system: Smaller Tea Tortrix (Adxophyes sp.); assay: Test Example 3: insecticidal effect on smaller tea tortrix, tea leaf immersion; conditions: 50 ppm, tea leaves immersed about 30 seconds, larvae, 25° C., humidity 70%, eight days after the inoculation
Experimental: Insecticidal Effect on Smaller Tea Tortrix (Adxophyes sp.)
Tea leaves were immersed for about 30 seconds in a liquid chemical prepared by diluting a preparation containing each compound listed in Tables 1 to 3 as an active ingredient to adjust the concentration to 50 ppm. After air-dryness, the tea leaves were placed in a plastic Petri dish with a diameter of 9 cm and inoculated with larvae of smaller tea tortrix, after which the dish was allowed to stand in a room thermostatted at 25° C. and having a humidity of 70%. Eight days after the inoculation, the dead and alive were counted and the insecticidal effect was judged according to the criterion shown in Test Example 1. The test was carried out with triplicate groups of 10 insects.

[2] = system: Common Cutworm (Spodoptera litura); assay: Test Example 2: insecticidal effect on common cutworm, cabbage leaf immersion; conditions: 50 ppm, cabbage leaf immersed about 30 seconds, second-instar larvae, 25° C., eight days after the inoculation
Source text: Insecticidal Effect on Common Cutworm (Spodoptera litura)
A piece of cabbage leaf (cultivar; Shikidori) was immersed for about 30 seconds in a liquid chemical prepared by diluting a preparation containing each compound listed in Tables 4 to 9 as an active ingredient to adjust the concentration to 50 ppm. After air-dryness, it was placed in a plastic Petri dish with a diameter of 9 cm and inoculated with second-instar larvae of common cutworm, after which the dish was closed and then allowed to stand in a room thermostatted at 25° C. Eight days after the inoculation, the dead and alive were counted. The mortality was calculated according to the following equation and the insecticidal effect was judged according to the criterion shown in Test Example 1. The test was carried out with triplicate groups of 10 insects.

[3] = system: Diamond Back Moth (Plutella xylostella); assay: Test Example 1: insecticidal effect on diamond back moth, immersion of Chinese cabbage seedling with eggs; conditions: 50 ppm, seedling with eggs immersed about 30 seconds, 25° C., six days after the immersion
Source text: Insecticidal Effect on Diamond Back Moth (Plutella xylostella)
Adult diamond back moths were released and allowed to oviposit on a Chinese cabbage seedling. Two days after the release, the seedling having the eggs deposited thereon was immersed for about 30 seconds in a liquid chemical prepared by diluting a preparation containing each compound listed in Tables 4 to 9 as an active ingredient to adjust the concentration to 50 ppm. After air-dryness, it was allowed to stand in a room thermostatted at 25° C. Six days after the immersion, the hatched insects were counted. The mortality was calculated according to the following equation and the insecticidal effect was judged according to the criterion shown below. The test was carried out with triplicate groups of 10 insects.

Compound	Test Example 3 (insecticidal effect, mortality criterion) [1]	Test Example 2 (insecticidal effect, mortality criterion) [2]	Test Example 1 (insecticidal effect, mortality criterion) [3]
Cc1ccccc1CNC(=O)OCC(C)NC(=O)c1c(I)cccc1C(=O)Nc1ccc(C(C(F)(F)F)C(F)(F)F)cc1C (stereo not drawn) [5-34]	A (Mortality 100%)	A (Mortality 100%)	A (Mortality 100%)
Cc1cc(C(C(F)(F)F)C(F)(F)F)ccc1NC(=O)c1cccc(I)c1C(=O)NC(C)COC(=O)NCc1ccc(C(F)(F)F)cc1 (stereo not drawn) [5-35]	A (Mortality 100%)	A (Mortality 100%)	A (Mortality 100%)
Cc1ccc(CNC(=O)OCC(C)NC(=O)c2c(I)cccc2C(=O)Nc2ccc(C(C(F)(F)F)C(F)(F)F)cc2C)cc1 (stereo not drawn) [5-36]	A (Mortality 100%)	E (Mortality 49% or less)	A (Mortality 100%)
Cc1cc(C(C(F)(F)F)C(F)(F)F)ccc1NC(=O)c1cccc(I)c1C(=O)NC(C)COC(=O)NCc1ccc(Cl)cc1 (stereo not drawn) [5-37]	A (Mortality 100%)	A (Mortality 100%)	A (Mortality 100%)
COc1ccc(CNC(=O)OCC(C)NC(=O)c2c(I)cccc2C(=O)Nc2ccc(C(C(F)(F)F)C(F)(F)F)cc2C)cc1 (stereo not drawn) [5-38]	A (Mortality 100%)	A (Mortality 100%)	A (Mortality 100%)
CSCC(C)NC(=O)c1c(I)cccc1C(=O)Nc1ccc(C(C(F)(F)F)C(F)(F)F)cc1C (stereo not drawn) [5-39]	A (Mortality 100%)	A (Mortality 100%)	A (Mortality 100%)
CC(=O)NCC(C)(C)NC(=O)c1c(I)cccc1C(=O)Nc1ccc(C(C(F)(F)F)C(F)(F)F)cc1C [5-40]	A (Mortality 100%)	A (Mortality 100%)	A (Mortality 100%)
CSCC(C)(C)NC(=O)c1c(C(=O)Nc2ccc(C(C(F)(F)F)C(F)(F)F)cc2C)cccc1C(F)(F)F [5-41]	A (Mortality 100%)	A (Mortality 100%)	A (Mortality 100%)
Cc1cc(C(C(F)(F)F)C(F)(F)F)ccc1NC(=O)c1cccc(C(F)(F)F)c1C(=O)NC(C)(C)C[S+](C)[O-] (stereo not drawn) [5-42]	A (Mortality 100%)	A (Mortality 100%)	A (Mortality 100%)
Cc1cc(C(C(F)(F)F)C(F)(F)F)ccc1NC(=O)c1cccc(C(F)(F)F)c1C(=O)NC(C)(C)CS(C)(=O)=O [5-43]	A (Mortality 100%)	A (Mortality 100%)	A (Mortality 100%)
CCN(CC)C(=O)OCC(C)NC(=O)c1c(C(=O)Nc2ccc(C(C(F)(F)F)C(F)(F)F)cc2C)cccc1C(F)(F)F (stereo not drawn) [5-44]	A (Mortality 100%)	A (Mortality 100%)	A (Mortality 100%)
CSCC(C)(C)NC(=O)c1c(C(=O)Nc2ccc(C(C(F)(F)F)C(F)(F)F)cc2C)ccc(Cl)c1Cl [5-45]	A (Mortality 100%)	A (Mortality 100%)	A (Mortality 100%)
CCc1cc(C(C(F)(F)F)C(F)(F)F)ccc1NC(=O)c1cccc(I)c1C(=O)NC(C)C [5-46]	A (Mortality 100%)	A (Mortality 100%)	A (Mortality 100%)
CCc1cc(C(C(F)(F)F)C(F)(F)F)ccc1NC(=O)c1cccc(I)c1C(=O)NC(C)(C)CSC [5-47]	A (Mortality 100%)	A (Mortality 100%)	A (Mortality 100%)
CSCC(C)(C)NC(=O)c1c(I)cccc1C(=O)Nc1ccc(C(C(F)(F)F)C(F)(F)F)cc1C(C)(C)C [5-48]	E (Mortality 49% or less)	E (Mortality 49% or less)	A (Mortality 100%)
C[S+]([O-])CC(C)(C)NC(=O)c1c(I)cccc1C(=O)Nc1ccc(C(C(F)(F)F)C(F)(F)F)cc1C(C)(C)C (stereo not drawn) [5-49]	E (Mortality 49% or less)	E (Mortality 49% or less)	A (Mortality 100%)
CC(C)NC(=O)c1c(I)cccc1C(=O)Nc1ccc(C(C(F)(F)F)C(F)(F)F)cc1F [5-50]	A (Mortality 100%)	A (Mortality 100%)	A (Mortality 100%)
CC(C)NC(=O)c1c(I)cccc1C(=O)Nc1ccc(C(C(F)(F)F)C(F)(F)F)cc1Cl [5-51]	A (Mortality 100%)	A (Mortality 100%)	A (Mortality 100%)
CSCC(C)(C)NC(=O)c1c(I)cccc1C(=O)Nc1ccc(C(C(F)(F)F)C(F)(F)F)cc1Cl [5-52]	A (Mortality 100%)	A (Mortality 100%)	A (Mortality 100%)
CSCC(C)(C)NC(=O)c1c(I)cccc1C(=O)Nc1ccc(C(C(F)(F)F)C(F)(F)F)cc1Br [5-53]	A (Mortality 100%)	A (Mortality 100%)	A (Mortality 100%)
C[S+]([O-])CC(C)(C)NC(=O)c1c(I)cccc1C(=O)Nc1ccc(C(C(F)(F)F)C(F)(F)F)cc1Br (stereo not drawn) [5-54]	A (Mortality 100%)	A (Mortality 100%)	A (Mortality 100%)
CSCC(C)(C)NC(=O)c1c(I)cccc1C(=O)Nc1ccc(C(C(F)(F)F)C(F)(F)F)cc1I [5-55]	A (Mortality 100%)	A (Mortality 100%)	A (Mortality 100%)
C[S+]([O-])CC(C)(C)NC(=O)c1c(I)cccc1C(=O)Nc1ccc(C(C(F)(F)F)C(F)(F)F)cc1I (stereo not drawn) [5-56]	A (Mortality 100%)	C (Mortality 89-80%)	A (Mortality 100%)
CSCC(C)(C)NC(=O)c1c(I)cccc1C(=O)Nc1ccc(C(C(F)(F)F)C(F)(F)F)cc1C#N [5-57]	A (Mortality 100%)	A (Mortality 100%)	A (Mortality 100%)
